This passage reports IC50 results from the Kinase Knowledgebase extract (Sharma et al. 2016).

In general, IC50 refers to the concentration needed to halve the response being measured. A lower IC50 goes with greater potency in that assay.

Each structure is given as a SMILES string. Positions of bridges follow the written chain, without caps; N, C: chain ends. Non-standard residues stand in square brackets, D forms with d. Residues, ends and D or L forms follow the SMILES beside them. *: point of attachment. pY = N[C@@H](Cc1ccc(OP(=O)(O)O)cc1)C(=O)O; O(2-Aminobenzoyl) = Nc1ccccc1C(=O)O*; X9 = O=S(=O)(O*)c1cccc2cccnc12; X13 = Nc1cc2ccccc2cc1C(=O)O*; X2 = O=C(O*)c1cc2ccccc2[nH]1; X3 = O=C(O*)c1cnc2ccccc2c1; X7 = O=C(O*)c1cc2ccccc2cn1; X8 = Nc1cc(N)cc(C(=O)O*)c1; X12 = Nc1ccccc1C(=O)OCCN*; X5 = O=C(O*)C1Cc2ccccc2N1; Ac6c = NC1(C(=O)O)CCCCC1; X11 = Nc1ccc(C(=O)O*)cc1; Ac5c = NC1(C(=O)O)CCCC1; X1 = Nc1ccccc1C(=O)OCN*; X6 = Nc1cccc(C(=O)O*)c1; X10 = Nc1ncccc1C(=O)O*; X4 = O=C(O*)c1ccccc1O; Acm = CC(=O)NC*

The target in the assay is EGFR (UniProt P00533).
Chain of EGFR (P00533 whole entry, looked up): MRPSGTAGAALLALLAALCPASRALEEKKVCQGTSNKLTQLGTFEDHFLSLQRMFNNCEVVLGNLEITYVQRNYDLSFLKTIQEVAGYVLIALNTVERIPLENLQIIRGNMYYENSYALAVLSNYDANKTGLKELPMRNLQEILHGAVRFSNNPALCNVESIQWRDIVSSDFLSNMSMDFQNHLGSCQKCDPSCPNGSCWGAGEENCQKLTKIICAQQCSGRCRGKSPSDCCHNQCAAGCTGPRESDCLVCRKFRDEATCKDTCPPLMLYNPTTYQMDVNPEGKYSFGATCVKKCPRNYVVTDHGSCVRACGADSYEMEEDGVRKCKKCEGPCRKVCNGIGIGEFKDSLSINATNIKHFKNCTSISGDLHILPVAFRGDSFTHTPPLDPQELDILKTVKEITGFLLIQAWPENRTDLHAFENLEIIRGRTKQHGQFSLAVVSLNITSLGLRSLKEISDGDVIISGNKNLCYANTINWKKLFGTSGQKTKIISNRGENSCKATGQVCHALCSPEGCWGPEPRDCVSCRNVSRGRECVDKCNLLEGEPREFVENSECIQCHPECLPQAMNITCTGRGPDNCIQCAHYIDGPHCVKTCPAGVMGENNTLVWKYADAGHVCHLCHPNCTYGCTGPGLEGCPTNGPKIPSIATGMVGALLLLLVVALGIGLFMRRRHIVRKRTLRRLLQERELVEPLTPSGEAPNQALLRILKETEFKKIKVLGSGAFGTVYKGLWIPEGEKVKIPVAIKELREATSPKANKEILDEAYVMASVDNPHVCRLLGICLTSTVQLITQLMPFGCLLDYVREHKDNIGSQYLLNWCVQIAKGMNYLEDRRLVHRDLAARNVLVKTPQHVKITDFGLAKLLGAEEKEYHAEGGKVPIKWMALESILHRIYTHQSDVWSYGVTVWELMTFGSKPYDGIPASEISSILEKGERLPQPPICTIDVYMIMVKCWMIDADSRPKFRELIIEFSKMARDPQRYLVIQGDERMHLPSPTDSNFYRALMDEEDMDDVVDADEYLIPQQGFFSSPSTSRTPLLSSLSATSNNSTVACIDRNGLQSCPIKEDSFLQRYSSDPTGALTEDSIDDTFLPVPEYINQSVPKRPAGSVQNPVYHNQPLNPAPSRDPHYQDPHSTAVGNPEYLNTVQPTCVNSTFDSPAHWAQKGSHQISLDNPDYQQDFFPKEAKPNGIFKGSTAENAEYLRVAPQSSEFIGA
Regarding `CC[C@H](C)[C@H](NC(=O)[C@H](CC(N)=O)NC(=O)[C@@H](N)CSCNC(C)=O)C(=O)N[C@@H](Cc1ccc(OP(=O)(O)O)cc1)C(=O)N[C@@H](CSCNC(C)=O)C(=O)OC(=O)c1ccccc1N`, the 50% inhibitory concentration (IC50) turned out to be 96 nM.
As for `CC[C@H](C)[C@H](NC(=O)[C@H](CC(N)=O)NC(=O)[C@H](N)CSCNC(C)=O)C(=O)N[C@@H](Cc1ccc(OP(=O)(O)O)cc1)C(=O)N[C@@H](CSCNC(C)=O)C(=O)OC(=O)c1ccccc1N`, the figure is 272 nM.
Then `CC[C@H](C)[C@@H]1NC(=O)[C@H](CC(N)=O)NC(=O)[C@@H](N)CSSC[C@@H](C(=O)OC(=O)c2ccccc2N)NC(=O)[C@H](Cc2ccc(OP(=O)(O)O)cc2)NC1=O` (H-CNI[pY]C-{O(2-Aminobenzoyl)}; disulfide 1-5), with 214 nM; and `CC[C@H](C)[C@@H]1NC(=O)[C@H](CC(N)=O)NC(=O)[C@H](CCC(N)=O)NC(=O)[C@@H](N)CSSC[C@@H](C(=O)OC(=O)c2ccccc2N)NC(=O)[C@H](Cc2ccc(OP(=O)(O)O)cc2)NC1=O` (H-CQNI[pY]C-{O(2-Aminobenzoyl)}; disulfide 1-6), with 15 nM.
As for `CC[C@H](C)[C@H](N)C(=O)N[C@H](C(=O)N[C@@H](Cc1ccc(OP(=O)(O)O)cc1)C(=O)N[C@@H](CC(=O)O)C(=O)OC(=O)c1ccccc1N)[C@@H](C)CC` (H-II[pY]D-{O(2-Aminobenzoyl)}), the figure is 230 nM.
With `CC[C@H](C)[C@H](NC(=O)[C@@H](N)CC(N)=O)C(=O)N[C@@H](Cc1ccc(OP(=O)(O)O)cc1)C(=O)N[C@@H](CCC(=O)O)C(=O)OC(=O)c1ccccc1N` (H-NI[pY]E-{O(2-Aminobenzoyl)}), the IC50 was found to be 22 nM.
Then `CC[C@H](C)[C@H](NC(=O)[C@@H](N)CC(N)=O)C(=O)N[C@@H](Cc1ccc(OP(=O)(O)O)cc1)C(=O)N[C@@H](Cc1ccccc1)C(=O)OC(=O)c1ccccc1N` (H-NI[pY]F-{O(2-Aminobenzoyl)}), with 54 nM; and `NC(=O)C[C@H](N)C(=O)NC1(C(=O)N[C@@H](Cc2ccc(OP(=O)(O)O)cc2)C(=O)N[C@@H](CCC(=O)O)C(=O)OC(=O)c2ccccc2N)CCCC1` (H-N[Ac5c][pY]E-{O(2-Aminobenzoyl)}), with 64 nM.
As to `NC(=O)C[C@H](N)C(=O)NC1(C(=O)N[C@@H](Cc2ccc(OP(=O)(O)O)cc2)C(=O)N[C@@H](CCC(=O)O)C(=O)OC(=O)c2ccccc2N)CCCCC1` (H-N[Ac6c][pY]E-{O(2-Aminobenzoyl)}), the IC50 worked out at 14 nM.
`CC(=O)NCSC[C@H](NC(=O)[C@H](CC(N)=O)NC(=O)[C@@H](N)CCC(N)=O)C(=O)N[C@@H](Cc1ccc(OP(=O)(O)O)cc1)C(=O)N[C@@H](CSCNC(C)=O)C(=O)OC(=O)c1ccccc1N` (H-QNC(Acm)[pY]C(Acm)-{O(2-Aminobenzoyl)}) registered an IC50 of 3140 nM.
Then `NC(=O)CC[C@H](N)C(=O)N[C@@H](CC(N)=O)C(=O)N[C@H]1CSSC[C@@H](C(=O)OC(=O)c2ccccc2N)NC(=O)[C@H](Cc2ccc(OP(=O)(O)O)cc2)NC1=O` (H-QNC[pY]C-{O(2-Aminobenzoyl)}; disulfide 3-5), with 570 nM.
As for `CC[C@H](C)[C@H](NC(=O)[C@H](CC(N)=O)NC(=O)[C@@H](N)CCC(N)=O)C(=O)N[C@@H](Cc1ccc(OP(=O)(O)O)cc1)C(=O)NCOC(=O)c1ccccc1N` (H-QNI[pY]-X1), the figure is 6 nM; as for `CC[C@H](C)[C@H](NC(=O)[C@H](CC(N)=O)NC(=O)[C@@H](N)CCC(N)=O)C(=O)N[C@@H](Cc1ccc(OP(=O)(O)O)cc1)C(=O)N[C@@H](C)C(=O)OC(=O)c1ccccc1N` (H-QNI[pY]A-{O(2-Aminobenzoyl)}), 11 nM.
Then `CC[C@H](C)[C@H](NC(=O)[C@H](CC(N)=O)NC(=O)[C@@H](N)CCC(N)=O)C(=O)N[C@@H](Cc1ccc(OP(=O)(O)O)cc1)C(=O)N[C@@H](CCC(=O)O)C(=O)OC(=O)c1cc2ccccc2[nH]1` (H-QNI[pY]E-X2), with 200 nM; and `CC[C@H](C)[C@H](NC(=O)[C@H](CC(N)=O)NC(=O)[C@@H](N)CCC(N)=O)C(=O)N[C@@H](Cc1ccc(OP(=O)(O)O)cc1)C(=O)N[C@@H](CCC(=O)O)C(=O)OC(=O)c1cnc2ccccc2c1` (H-QNI[pY]E-X3), with 810 nM; and `CC[C@H](C)[C@H](NC(=O)[C@H](CC(N)=O)NC(=O)[C@@H](N)CCC(N)=O)C(=O)N[C@@H](Cc1ccc(OP(=O)(O)O)cc1)C(=O)N[C@@H](CCC(=O)O)C(=O)OC(=O)c1ccccc1O` (H-QNI[pY]E-X4), with 780 nM.
In the case of `CC[C@H](C)[C@H](NC(=O)[C@H](CC(N)=O)NC(=O)[C@@H](N)CCC(N)=O)C(=O)N[C@@H](Cc1ccc(OP(=O)(O)O)cc1)C(=O)N[C@@H](CCC(=O)O)C(=O)OC(=O)C1Cc2ccccc2N1` (some centres undefined) (H-QNI[pY]E-X5), the IC50 was 74 nM.
As for `CC[C@H](C)[C@H](NC(=O)[C@H](CC(N)=O)NC(=O)[C@@H](N)CCC(N)=O)C(=O)N[C@@H](Cc1ccc(OP(=O)(O)O)cc1)C(=O)N[C@@H](CCC(=O)O)C(=O)OC(=O)c1cccc(N)c1` (H-QNI[pY]E-X6), the figure is 57 nM; as for `CC[C@H](C)[C@H](NC(=O)[C@H](CC(N)=O)NC(=O)[C@@H](N)CCC(N)=O)C(=O)N[C@@H](Cc1ccc(OP(=O)(O)O)cc1)C(=O)N[C@@H](CCC(=O)O)C(=O)OC(=O)c1cc2ccccc2cn1` (H-QNI[pY]E-X7), 550 nM; as for `CC[C@H](C)[C@H](NC(=O)[C@H](CC(N)=O)NC(=O)[C@@H](N)CCC(N)=O)C(=O)N[C@@H](Cc1ccc(OP(=O)(O)O)cc1)C(=O)N[C@@H](CCC(=O)O)C(=O)OC(=O)c1cc(N)cc(N)c1` (H-QNI[pY]E-X8), 180 nM.
Then `CC[C@H](C)[C@H](NC(=O)[C@H](CC(N)=O)NC(=O)[C@@H](N)CCC(N)=O)C(=O)N[C@@H](Cc1ccc(OP(=O)(O)O)cc1)C(=O)N[C@@H](CCC(=O)O)C(=O)OC(=O)c1cccnc1N` (H-QNI[pY]E-X10), with 480 nM; and `CC[C@H](C)[C@H](NC(=O)[C@H](CC(N)=O)NC(=O)[C@@H](N)CCC(N)=O)C(=O)N[C@@H](Cc1ccc(OP(=O)(O)O)cc1)C(=O)N[C@@H](CCC(=O)O)C(=O)OC(=O)c1ccc(N)cc1` (H-QNI[pY]E-X11), with 230 nM.
For the compound `CC[C@H](C)[C@H](NC(=O)[C@H](CC(N)=O)NC(=O)[C@@H](N)CCC(N)=O)C(=O)N[C@@H](Cc1ccc(OP(=O)(O)O)cc1)C(=O)N[C@@H](CCC(=O)O)C(=O)NCCOC(=O)c1ccccc1N` (H-QNI[pY]E-X12), the IC50 was 130 nM.
The compound `CC[C@H](C)[C@H](NC(=O)[C@H](CC(N)=O)NC(=O)[C@@H](N)CCC(N)=O)C(=O)N[C@@H](Cc1ccc(OP(=O)(O)O)cc1)C(=O)N[C@@H](CCC(=O)O)C(=O)OC(=O)c1cc2ccccc2cc1N` (H-QNI[pY]E-X13) had an IC50 of 600 nM.
In turn, `CC[C@H](C)[C@H](NC(=O)[C@H](CC(N)=O)NC(=O)[C@@H](N)CCC(N)=O)C(=O)N[C@@H](Cc1ccc(OP(=O)(O)O)cc1)C(=O)N[C@@H](CCC(=O)O)C(=O)OC(=O)c1ccccc1N` (H-QNI[pY]E-{O(2-Aminobenzoyl)}) had an IC50 of 22 nM.
`CC[C@H](C)[C@H](NC(=O)[C@H](CC(N)=O)NC(=O)[C@@H](N)CCC(N)=O)C(=O)N[C@@H](Cc1ccc(OP(=O)(O)O)cc1)C(=O)N[C@H](C(=O)OS(=O)(=O)c1cccc2cccnc12)[C@@H](C)CC` (H-QNI[pY]I-X9) displayed an IC50 of 230 nM.
As for `CC[C@H](C)[C@H](NC(=O)[C@H](CC(N)=O)NC(=O)[C@@H](N)CCC(N)=O)C(=O)N[C@@H](Cc1ccc(OP(=O)(O)O)cc1)C(=O)N[C@H](C(=O)OC(=O)c1ccccc1N)[C@@H](C)CC` (H-QNI[pY]I-{O(2-Aminobenzoyl)}), the figure is 6 nM.
The compound `CC[C@H](C)[C@H](NC(=O)[C@H](CC(N)=O)NC(=O)[C@@H](N)CCC(N)=O)C(=O)N[C@@H](Cc1ccc(OP(=O)(O)O)cc1)C(=O)N[C@@H](CC(C)C)C(=O)OC(=O)c1ccccc1N` (H-QNI[pY]L-{O(2-Aminobenzoyl)}) displayed an IC50 of 138 nM.
Consider `CC[C@H](C)[C@H](NC(=O)[C@H](CC(N)=O)NC(=O)[C@@H](N)CCC(N)=O)C(=O)N[C@@H](Cc1ccc(OP(=O)(O)O)cc1)C(=O)N[C@H](C(=O)OC(=O)c1ccccc1N)C(C)C` (H-QNI[pY]V-{O(2-Aminobenzoyl)}), for which the IC50 turned out to be 106 nM.
